Where “and” joins values, the source holds several entries; their conditions need not be identical. Equal entries are not always repeated. Inconclusive results and toxic doses are left out.
Tested on: BDF1 mice, P388 leukemia ip, median survival T/C
Test: NCI In Vivo Anticancer Drug Screen. Data for tumor model P388 Leukemia (intraperitoneal) in B6D2F1 (BDF1) mice
Conditions: endpoint: median survival time, higher = longer survival
How it was run: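 Transplantable tumour in mice; compound vs vehicle dosing; survival scored; ratio of treated to control reported.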

[1] = dose: 100.0 mg/kg/injection, schedule: Q01DX009 (ip), vehicle: saline with Tween-80
[2] = dose: 200.0 mg/kg/injection, schedule: Q01DX009 (ip), vehicle: saline with Tween-80
[3] = dose: 400.0 mg/kg/injection, schedule: Q01DX009 (ip), vehicle: saline with Tween-80
[4] = dose: 6.25 mg/kg/injection, schedule: Q01DX009 (ip), vehicle: Klucel (hydroxypropylcellulose) (HPC)
[5] = dose: 12.5 mg/kg/injection, schedule: Q01DX009 (ip), vehicle: Klucel (hydroxypropylcellulose) (HPC)
[6] = dose: 25.0 mg/kg/injection, schedule: Q01DX009 (ip), vehicle: saline with Tween-80
[7] = dose: 25.0 mg/kg/injection, schedule: Q04DX003 (ip), vehicle: saline with Tween-80
[8] = dose: 50.0 mg/kg/injection, schedule: Q01DX009 (ip), vehicle: saline with Tween-80
[9] = dose: 100.0 mg/kg/injection, schedule: Q04DX003 (ip), vehicle: saline with Tween-80
[10] = dose: 200.0 mg/kg/injection, schedule: Q04DX003 (ip), vehicle: saline with Tween-80
[11] = dose: 100.0 mg/kg/injection, schedule: Q01DX009 (ip), vehicle: Klucel (hydroxypropylcellulose) (HPC)
[12] = dose: 100.0 mg/kg/injection, schedule: Q04DX003 (ip), vehicle: Klucel (hydroxypropylcellulose) (HPC)
[13] = dose: 100.0 mg/kg/injection, schedule: Q01DX009 (ip), vehicle: saline

## Cc1ccn(-c2ccccc2)n1
dose: 100.0 mg/kg/injection, schedule: Q04DX003 (ip), vehicle: other
  T/C: 104 % of control
dose: 200.0 mg/kg/injection, schedule: Q04DX003 (ip), vehicle: other
  T/C: 113 % of control
dose: 400.0 mg/kg/injection, schedule: Q04DX003 (ip), vehicle: other
  T/C: 113 % of control

## O=C1NC2(CCCCCC2)C(=O)N1CN1CCOCC1
dose: 25.0 mg/kg/injection, schedule: Q04DX003 (ip), vehicle: saline sonified
  T/C: 90 % of control
dose: 50.0 mg/kg/injection, schedule: Q04DX003 (ip), vehicle: saline sonified
  T/C: 95 % of control
dose: 100.0 mg/kg/injection, schedule: Q04DX003 (ip), vehicle: saline sonified
  T/C: 104 % of control

## O=C1C=C2C(=CCOC2O)O1 (configuration not stated)
dose: 0.01 mg/kg/injection, schedule: Q01DX009 (ip), vehicle: other
  T/C: 104 % of control
dose: 0.03 mg/kg/injection, schedule: Q01DX009 (ip), vehicle: other
  T/C: 111 % of control
dose: 0.1 mg/kg/injection, schedule: Q01DX009 (ip), vehicle: other
  T/C: 104 % of control
dose: 3.0 mg/kg/injection, schedule: Q01DX009 (ip), vehicle: other
  T/C: 158 % of control

## CC(=O)OCC(=O)[C@@]1(O)CC[C@H]2[C@@H]3CCC4=CC(=O)CC[C@]4(C)[C@H]3[C@@H](O)C[C@@]21C
dose: 90.0 mg/kg/injection, schedule: Q01DX010 (sc), vehicle: steriod suspending solution
  T/C: 100 % of control
[1]
  T/C: 100 % of control
dose: 130.0 mg/kg/injection, schedule: Q01DX010 (sc), vehicle: steriod suspending solution
  T/C: 88 % of control
[2]
  T/C: 110 % of control
[3]
  T/C: 90 % of control

## C[n+]1ccc2cc(N)c3c4ccccc4sc3c2c1
dose: 3.12 mg/kg/injection, schedule: Q01DX009 (ip), vehicle: saline with Tween-80
  T/C: 110 % of control and 119 % of control
dose: 3.13 mg/kg/injection, schedule: Q01DX009 (ip), vehicle: Klucel (hydroxypropylcellulose) (HPC)
  T/C: 116 % of control
[4]
  T/C: 123 % of control
dose: 6.25 mg/kg/injection, schedule: Q04DX003 (ip), vehicle: saline with Tween-80
  T/C: 105 % of control
[5]
  T/C: 156 % of control
dose: 12.5 mg/kg/injection, schedule: Q04DX003 (ip), vehicle: saline with Tween-80
  T/C: 112 % of control
dose: 25.0 mg/kg/injection, schedule: Q01DX009 (ip), vehicle: Klucel (hydroxypropylcellulose) (HPC)
  T/C: 170 % of control and 184 % of control
[6]
  T/C: 172 % of control
[7]
  T/C: 112 % of control

## O=C1NC(=O)C([N+](=O)[O-])=C(O)C1=O
dose: 1.0 mg/kg/injection, schedule: Q01DX009 (ip), vehicle: saline with Tween-80
  T/C: 110 % of control
dose: 4.0 mg/kg/injection, schedule: Q01DX009 (ip), vehicle: saline with Tween-80
  T/C: 105 % of control
dose: 8.0 mg/kg/injection, schedule: Q01DX009 (ip), vehicle: saline with Tween-80
  T/C: 100 % of control
dose: 9.0 mg/kg/injection, schedule: Q01DX009 (ip), vehicle: saline with Tween-80
  T/C: 150 % of control
dose: 15.0 mg/kg/injection, schedule: Q01DX009 (ip), vehicle: saline with Tween-80
  T/C: 95 % of control
dose: 18.0 mg/kg/injection, schedule: Q01DX009 (ip), vehicle: saline with Tween-80
  T/C: 110 % of control
dose: 25.0 mg/kg/injection, schedule: Q04DX003 (ip), vehicle: other
  T/C: 104 % of control
dose: 35.0 mg/kg/injection, schedule: Q01DX009 (ip), vehicle: saline with Tween-80
  T/C: 100 % of control and 120 % of control
dose: 35.0 mg/kg/injection, schedule: Q04DX003 (ip), vehicle: other
  T/C: 104 % of control
[8]
  T/C: 90 % of control and 95 % of control
dose: 50.0 mg/kg/injection, schedule: Q04DX003 (ip), vehicle: other
  T/C: 104 % of control
dose: 50.0 mg/kg/injection, schedule: Q04DX003 (ip), vehicle: saline
  T/C: 118 % of control
dose: 75.0 mg/kg/injection, schedule: Q01DX009 (ip), vehicle: saline with Tween-80
  T/C: 105 % of control
dose: 75.0 mg/kg/injection, schedule: Q04DX003 (ip), vehicle: other
  T/C: 100 % of control
dose: 100.0 mg/kg/injection, schedule: Q04DX003 (ip), vehicle: saline
  T/C: 109 % of control
dose: 150.0 mg/kg/injection, schedule: Q01DX009 (ip), vehicle: saline with Tween-80
  T/C: 95 % of control
dose: 200.0 mg/kg/injection, schedule: Q04DX003 (ip), vehicle: saline
  T/C: 104 % of control and 122 % of control
dose: 300.0 mg/kg/injection, schedule: Q01DX009 (ip), vehicle: saline with Tween-80
  T/C: 90 % of control

## NC1(C(=O)O)CCCc2ccc(N(CCCl)CCCl)cc21 (configuration not stated)
dose: 16.5 mg/kg/injection, schedule: Q04DX003 (ip), vehicle: saline with Tween-80
  T/C: 263 % of control and 272 % of control
[7]
  T/C: 272 % of control
dose: 37.5 mg/kg/injection, schedule: Q04DX003 (ip), vehicle: saline with Tween-80
  T/C: 177 % of control

## CCOC(=O)c1cnc2ccc(OC)cc2c1Cl
[8]
  T/C: 95 % of control
dose: 50.0 mg/kg/injection, schedule: Q04DX003 (ip), vehicle: saline with Tween-80
  T/C: 91 % of control
[1]
  T/C: 111 % of control
[9]
  T/C: 103 % of control
[2]
  T/C: 99 % of control
[10]
  T/C: 103 % of control
[3]
  T/C: 96 % of control
dose: 400.0 mg/kg/injection, schedule: Q04DX003 (ip), vehicle: saline with Tween-80
  T/C: 95 % of control

## CN(C)c1ccc(N(C)C)c(C(O)(c2ccccc2)c2ccccc2)c1
dose: 12.5 mg/kg/injection, schedule: Q01DX009 (ip), vehicle: saline with Tween-80
  T/C: 95 % of control
[6]
  T/C: 93 % of control
[8]
  T/C: 95 % of control

## Nc1ncnc2c1cnn2CCCl
[9]
  T/C: 122 % of control
[10]
  T/C: 118 % of control

## Cc1ccc(S(=O)(=O)N/N=C/C(=O)O)cc1
[4]
  T/C: 113 % of control and 111 % of control
dose: 6.25 mg/kg/injection, schedule: Q01DX009 (ip), vehicle: other
  T/C: 112 % of control
[5]
  T/C: 124 % of control
dose: 50.0 mg/kg/injection, schedule: Q01DX009 (ip), vehicle: Klucel (hydroxypropylcellulose) (HPC)
  T/C: 191 % of control and 169 % of control and 185 % of control
[11]
  T/C: 90 % of control and 101 % of control
dose: 400.0 mg/kg/injection, schedule: Q01DX009 (ip), vehicle: Klucel (hydroxypropylcellulose) (HPC)
  T/C: 114 % of control

## COc1ccc(OC)c(/C=C/C(=O)c2ccc(Cl)cc2)c1
[12]
  T/C: 104 % of control
dose: 200.0 mg/kg/injection, schedule: Q04DX003 (ip), vehicle: Klucel (hydroxypropylcellulose) (HPC)
  T/C: 95 % of control
dose: 400.0 mg/kg/injection, schedule: Q04DX003 (ip), vehicle: Klucel (hydroxypropylcellulose) (HPC)
  T/C: 104 % of control

## O=C(O)/C=C\C(=O)Nc1ccccc1NC(=O)/C=C/C(=O)O
[13]
  T/C: 104 % of control
dose: 200.0 mg/kg/injection, schedule: Q01DX009 (ip), vehicle: saline
  T/C: 113 % of control
dose: 400.0 mg/kg/injection, schedule: Q01DX009 (ip), vehicle: saline
  T/C: 109 % of control

## CCCCCCCCO/N=C\c1c2c(O)c3c(O)c(C)c4c(c3c1O)C(=O)C(C)(O/C=C\C(OC)C(C)C(OC(C)=O)C(C)C(O)C(C)C(O)C(C)/C=C\C=C(\C)C(=O)N2)O4 (configuration not stated)
[11]
  T/C: 100 % of control
dose: 200.0 mg/kg/injection, schedule: Q01DX009 (ip), vehicle: Klucel (hydroxypropylcellulose) (HPC)
  T/C: 100 % of control

## O=c1[nH]nnc2ccccc12
dose: 25.0 mg/kg/injection, schedule: Q01DX009 (ip), vehicle: saline
  T/C: 95 % of control
dose: 25.0 mg/kg/injection, schedule: Q04DX003 (ip), vehicle: Klucel (hydroxypropylcellulose) (HPC)
  T/C: 100 % of control
dose: 37.5 mg/kg/injection, schedule: Q04DX003 (ip), vehicle: Klucel (hydroxypropylcellulose) (HPC)
  T/C: 100 % of control
dose: 50.0 mg/kg/injection, schedule: Q01DX009 (ip), vehicle: saline
  T/C: 95 % of control
dose: 50.0 mg/kg/injection, schedule: Q04DX003 (ip), vehicle: Klucel (hydroxypropylcellulose) (HPC)
  T/C: 104 % of control
dose: 75.0 mg/kg/injection, schedule: Q04DX003 (ip), vehicle: Klucel (hydroxypropylcellulose) (HPC)
  T/C: 95 % of control
[13]
  T/C: 90 % of control
[12]
  T/C: 100 % of control
dose: 150.0 mg/kg/injection, schedule: Q01DX009 (ip), vehicle: Klucel (hydroxypropylcellulose) (HPC)
  T/C: 100 % of control
dose: 150.0 mg/kg/injection, schedule: Q04DX003 (ip), vehicle: Klucel (hydroxypropylcellulose) (HPC)
  T/C: 109 % of control
